According to patent US8017557B2, “Benzodioxole derivatives as modulators of proteolytic activity in plants” (Endura S.p.A., priority 2002, dated 2011):
Like-named read-outs stand apart in the source and are kept apart here.

Columns and labels:
[1] = test system: endopeptidase activity in cotton leaves; test: Radial Diffusion Assay (RDA) of endopeptidase activity in cotton plants; assay type: in vivo, cotton (cv. Sicala V2i); conditions: for Endopeptidase activity, cv. V2i Bt PBO: U = trypsin equivalents
Method: The […] of the clear zone produced by the plant extracts was compared to a standard curve obtained by a serial dilution of trypsin. A standard solution of trypsin was used to plot a standard curve for each sample plate, thus the endopeptidase activity was expressed as units of trypsin equivalents. For each extract, the amount of soluble proteins in mg was determined by the Biuret method and the enzymatic activity was then expressed as specific activity i.e. Units/mg soluble proteins. Abscissa: time (days); ordinate: trypsin units/mg soluble protein.
The samples were collected at different development stages of plants, which were: […], 60 and 85 days after sowing. These samples were also analysed for determining the Bt content (as described in example 4). To this aim, the enzymatic activity was tested on crude freeze dried leaf extracts with two different assays: the Radial Diffusion Assay (RDA), in which a protein, such as the bovine gelatine, was used as a substrate to test the endopeptidase activity, and a photometric assay described in the next example, in which DL-BAPA was used as a substrate, to determine a general peptidase activity.
A powder aliquot, which represents each step of plant growth, of the treated and controls samples was extracted in two steps. The powder sample was extracted with buffer 0.1 M Tris-HCl pH 7.7 (1:20 w/v) using an Ultraturrax blender at 24,000×RPM for 2 min in a ice bath to avoid overheating. […] The clear supernatant was collected and filtrated with Whatman paper no 4. The pellet was further extracted with the same procedure, with the exception that in this case the extraction ratio was 1:10 (w/v). Finally, the supernatants of the two extractions processes were joined and then concentrated 4-5 times by centrifugation at 3,000×g at 15° C. for 2 hours, using suitable concentrators (Amicon Inc. Beverly, Mass.—USA), fitted with a membrane of 10 κD cut off.
For each extract, the amount of soluble proteins was determined by the Biuret method and the enzymatic activity was then expressed as specific activity i.e. Units/mg soluble proteins.
RDA was performed as described in Santarius, K. and Ryan, C., Anal. Biochem., 1977, 77: 1-9 in Petri dishes containing bovine gelatine as substrate, dispersed in agar gel. Each dish contained 5 wells of which 4 were filled with suitable aliquots of concentrated cotton extracts, whereas one was filled with a bovine β-trypsin as standard solution (0.2 U/ml). The dishes were covered and sealed with a plastic film to avoid evaporation and then incubated at 37° C. for 16 hours.
The enzymatic activity in the protein-agar gel produced a clear radial diffusion zone around each circular wells, due to the bovine gelatine proteolysis against an opaque background.
The trypsin equivalents were calculated by measuring the radii of the clear zones produced by the plant extracts and compared to a standard curve obtained by a serial dilution of trypsin. Each dish contained a standard solution of trypsin that was used to plot a standard curve for each plate, thus the endopeptidase activity was expressed as units of trypsin equivalents.
Each analysis was performed in quadruplicate. […] In table 6 are shown the differences between treated and untreated cotton samples as percentages.

Bt toxin (Cry1Ac) = test system: Bt toxin (Cry1Ac)
Method: An immunoenzymatic assay was used to determine the Bt levels at different stages of plant development. • a) Measured Bt toxin values; ordinate: Bt expressed as ppm; abscissa: days of plant culture and where different, plant tissue.
The assay was carried out on samples collected at different plant development stages, which were: 4, 35, 60, 85 days after sowing.
The ELISA Cry1Ab/Cry1Ac Plate Kit was obtained from Envirologix (Portland, Maine—USA). The assay was performed according to the Envirologix protocol with the following modifications: • 1. The cotton freeze-dried powder got from leaf or cotyledon tissues was used instead of the fresh and whole leaf tissue. • 2. The Bt toxin extraction from the cotton freeze-dried powder was done with a sample/buffer ratio of 1:25 (w/v). • 3. The extraction was made leaving the sample in the buffer for at least 4 hours at room temperature, instead of using the Envirologix Disposable Tissue Extractor. The extract was then clarified by centrifugation at 5,000×g for 5 min at room temperature.
Cotton seeds of the cv. Sicala V2i were previously rinsed in distilled water and then placed in equal number in suitable plastic boxes containing settled and sterile sand. Seeds were watered with equal volumes of distilled water and the culture boxes were then covered with a plastic film to avoid evaporation during germination, which was carried out in the dark for 4 days at 30° C. […] After 4 days, these sprouts were collected for testing, whereas the other sprouts were moved in suitable pots and located in the greenhouse at 24° C. during the day and 20° C. in the night.
Treatments were given out vaporizing the diluted formulation on the plants taking care to treat both leaves sides.
Two days after each treatment, a sample of the treated plants, and the correspondent controls, were collected and all leaves were frozen in liquid nitrogen and freeze dried. After this process, the material was powdered in a pestle and then stored in a dry box at room temperature.

[2] = Growth stage 4 days (plantlets)
[3] = Growth stage 35 days (cotyledons)

## CCCCOCCOCCOCc1cc2c(cc1CCC)OCO2 [PBO, 5-[[2-(2-Butoxyethoxy)ethoxy]methyl]-6-propyl-1,3-benzodioxole]
[1]; 4 days after sowing
  Difference % Treated minus untreated (endopeptidase, RDA): 9.15%
  Endopeptidase activity, cv. V2i Bt PBO: 5.90 U/mg protein
[1]; 35 days after sowing
  Difference % Treated minus untreated (endopeptidase, RDA): −5.35%
  Endopeptidase activity, cv. V2i Bt PBO: 8.04 U/mg protein
[1]; 60 days after sowing
  Difference % Treated minus untreated (endopeptidase, RDA): −39.31%
  Endopeptidase activity, cv. V2i Bt PBO: 4.07 U/mg protein
[1]; 85 days after sowing
  Difference % Treated minus untreated (endopeptidase, RDA): −16.42%
  Endopeptidase activity, cv. V2i Bt PBO: 4.14 U/mg protein
Bt toxin (Cry1Ac); 35, 60, 85 days after planting
  Bt content in PBO-treated samples vs untreated: significant lower Bt content
Bt toxin (Cry1Ac); 4 days
  Bt content in PBO-treated samples vs untreated: no difference
Bt toxin (Cry1Ac); [2]
  %: treated − control (Cry1Ac): −4.823%
  Cry1Ac ppm, cv V2i PBO treated: 44.60 ppm
  Δ: treated − control (Cry1Ac): −2.26 ppm
Bt toxin (Cry1Ac); [3]
  %: treated − control (Cry1Ac): 9.149%
  Cry1Ac ppm, cv V2i PBO treated: 66.57 ppm
  Δ: treated − control (Cry1Ac): 5.58 ppm
Bt toxin (Cry1Ac); Growth stage 35 days (leaves)
  %: treated − control (Cry1Ac): 38.356%
  Cry1Ac ppm, cv V2i PBO treated: 45.45 ppm
  Δ: treated − control (Cry1Ac): 12.6 ppm
Bt toxin (Cry1Ac); Growth stage 60 days (leaves)
  %: treated − control (Cry1Ac): 16.629%
  Cry1Ac ppm, cv V2i PBO treated: 31.07 ppm
  Δ: treated − control (Cry1Ac): 4.43 ppm
Bt toxin (Cry1Ac); Growth stage 85 days (leaves)
  %: treated − control (Cry1Ac): 13.236%
  Cry1Ac ppm, cv V2i PBO treated: 31.91 ppm
  Δ: treated − control (Cry1Ac): 3.73 ppm
Bt toxin (Cry1Ac); cotton transgenic for the Bt CryI protein
  amount of transgenic toxin after PBO treatment: higher than in transgenic untreated plants
